Literature values, collected in patent publication US20220000907A1, “MOUTHWASH/GARGLE, NASAL/ORAL/NASAL SPRAY COVID AND BACTERIOCIDE ARRANGEMENT” (priority 2020, published 2022).

How the values were obtained:
microbes = settings: 1.0% PVPI solution gives 0.1% available iodine
[1] = system: all seven classes of viral organisms

## polyvinylpyrrolidone iodine [PVPI]
microbes
  most effective antimicrobial concentration of PVPI (peak of bell curve of microbial killing): 1%
[1]; PVPI in solution
  effectiveness against all classes of viruses (I-VII): effective
[1]; effective concentration of 0.1% available iodine
  inactivation of all classes of viruses: inactivated
